As a reminder, the ΔTm is the change in melting temperature against a reference sample.

Structures are written as SMILES.

The text below walks through data of PMC11171523 (2024).

Experiment [1] concerns poly A–poly U (pApU, AU-RNA) (RNA, polymer) A/U. Kind of experiment: fluorimetric titration, Scatchard fit. The following applies: Na+ (sodium cacodylate, I = 0.05 M); pH 7.0, 25 °C; dye 50 nM; n fixed at 0.2; polynucleotide as phosphate; per base.
For experiment [2] the test system is unchanged. As to the kind of experiment: UV melting at 260 nm. As to conditions: Na+ (sodium cacodylate, I = 0.05 M); pH 7; ratio [dye]/[polynucleotide] = 0.1; error ±0.5 °C; per base.
The subject of experiment [3] is poly dAdT–poly dAdT (poly(dAdT)2, AT-DNA) (DNA, polymer) AT. As to the kind of experiment: CD titration (induced CD). As to conditions: Na+ (sodium cacodylate, I = 0.05 M), pH 7.
Experiment [4] concerns poly dGdC–poly dGdC (poly(dGdC)2, GC-DNA) (DNA, polymer) GC. Kind of experiment: CD titration (induced CD). The following applies: Na+ (sodium cacodylate, I = 0.05 M), pH 7.
Where [5] appears, read: ratio [dye]/[polynucleotide] = 0.1 and 0.5, negative ICD at 308–324 nm.

Turning to `C#CC[N+](C)(C)c1ccc(/C=C/c2cc(/C=C/c3ccc([N+](C)(C)CC#C)cc3)c(/C=C/c3ccc([N+](C)(C)CC#C)cc3)cc2/C=C/c2ccc([N+](C)(C)CC#C)cc2)cc1`, the “log Ks” value in experiment [1] was 8.9. Also, the ΔTm result in experiment [2] is “+10.4 °C”.

For `C#CC[N+](C)(C)c1ccc(/C=C/c2cc(/C=C/c3ccc([N+](C)(C)CC#C)cc3)cc(/C=C/c3ccc([N+](C)(C)CC#C)cc3)c2)cc1`, in experiment [1], the “log Ks” value turned out to be 8.6. Also, the thermal shift (ΔTm) entry in experiment [2] was “+18.1 °C”.

With `CCCC[N+](C)(CCCC)c1ccc(/C=C/c2cc(/C=C/c3ccc([N+](C)(CCCC)CCCC)cc3)c(/C=C/c3ccc([N+](C)(CCCC)CCCC)cc3)cc2/C=C/c2ccc([N+](C)(CCCC)CCCC)cc2)cc1`, the “log Ks” value in experiment [1] is recorded as 8.6. The ΔTm in experiment [2] was 0 °C.

Consider `CCCC[N+](C)(CCCC)c1ccc(/C=C/c2cc(/C=C/c3ccc([N+](C)(CCCC)CCCC)cc3)cc(/C=C/c3ccc([N+](C)(CCCC)CCCC)cc3)c2)cc1`, for which the binding entry in experiment [3] (setting [5]) and in experiment [4] (setting [5]) was “yes” throughout. Also, the “log Ks” value in experiment [1] is 8.9. Besides, the ΔTm result in experiment [2] is “+5.1 °C”.

In the case of `CCCC[n+]1ccc(/C=C/c2cc(/C=C/c3cc[n+](CCCC)cc3)c(/C=C/c3cc[n+](CCCC)cc3)cc2/C=C/c2cc[n+](CCCC)cc2)cc1`, in experiment [1], the “log Ks” value amounted to 7.6. For the same compound, the ΔTm entry in experiment [2] was “+1.7 °C”.

With `CCCC[n+]1ccc(/C=C/c2cc(/C=C/c3cc[n+](CCCC)cc3)cc(/C=C/c3cc[n+](CCCC)cc3)c2)cc1`, in experiment [1], the “log Ks” value is 8.7. The ΔTm entry in experiment [2] is “+1.5 °C”.

With `C[N+](C)(C)c1ccc(/C=C/c2cc(/C=C/c3ccc([N+](C)(C)C)cc3)c(/C=C/c3ccc([N+](C)(C)C)cc3)cc2/C=C/c2ccc([N+](C)(C)C)cc2)cc1`, in experiment [1], the “log Ks” value worked out at 8.6. Further, the ΔTm entry in experiment [2] was “+12.5 °C”.

Regarding `C[N+](C)(C)c1ccc(/C=C/c2cc(/C=C/c3ccc([N+](C)(C)C)cc3)cc(/C=C/c3ccc([N+](C)(C)C)cc3)c2)cc1`, the binding result in experiment [3] (ratio [dye]/[polynucleotide] = 0.5, weaker ICD than GC-DNA) is on record as “yes”; in experiment [4] (ratio [dye]/[polynucleotide] = 0.5, strong negative ICD at 325 nm) it was “yes”. For the same compound, in experiment [1], the “log Ks” value was found to be 8.9. Also, the ΔTm entry in experiment [2] was “+23.2 °C”.

With `C[n+]1ccc(/C=C/c2cc(/C=C/c3cc[n+](C)cc3)c(/C=C/c3cc[n+](C)cc3)cc2/C=C/c2cc[n+](C)cc2)cc1`, the “log Ks” value in experiment [1] was found to be 8.2. In experiment [2], the thermal shift (ΔTm) entry is “+6.4 °C”.

In the case of `C[n+]1ccc(/C=C/c2cc(/C=C/c3cc[n+](C)cc3)cc(/C=C/c3cc[n+](C)cc3)c2)cc1`, in experiment [1], the “log Ks” value was found to be 8.7. In experiment [2], the ΔTm result is “+8.5 °C”.
